From patent publication US20230286948A1 (HUYABIO International, LLC, priority 2022, published 2023)

Key:
[1] = test system: MV-411 cells; assay: Anti-proliferative activity against MV-411 leukemia cells (CellTiterGlo viability, 72 h); type: cell-based; conditions: Homo sapiens, MV4-11, 72 h, MV-411 human acute monocytic leukemia cells, a second value in parentheses is a further determination
Method: Procedure: MV-411 cells were seeded into 384 well plates at 2000 cells/well density in 50 μL total volume, according to plate map and were allowed to naturally sediment by waiting about 30 min on a Clean Bench. Next, plated cells were centrifuged for 1 min at 1000 rpm and the excess cells were transferred into the flasks for further culture. Cells in the assay plates were incubated (at least 4 hrs.) at 37° C., 5% CO2 followed by adding the compounds as the plate map indicated. The tests were performed in duplicates with treatment of compounds at 10 pts 3-fold titration in 384 well plates. Taxol was used as positive control while DMSO as negative control. To rule out edge effect, the wells on the edge were not seeded and therefore one 384 well plate holds 13 compounds. Cells viability was measured 72h after incubation with compounds using CellTiterGlo (promega) viability assay according to manufacturer's instruction to check the ATP production in each well.
Experiments on anti-proliferative activity against leukemia cells were conducted with some of the compounds of the invention.

[2] = molecular target: hERG (Homo sapiens (Human), UniProt Q12809); assay: hERG radioligand binding assay; conditions: for inhibition at 1 h, 10000 nM: human, hERG membrane stocks (membrane preparation), probe 3H radio ligand (not named), max dose 10,000 nM, read-out: % Inh at Max dose
Sequence of hERG (Q12809 whole entry): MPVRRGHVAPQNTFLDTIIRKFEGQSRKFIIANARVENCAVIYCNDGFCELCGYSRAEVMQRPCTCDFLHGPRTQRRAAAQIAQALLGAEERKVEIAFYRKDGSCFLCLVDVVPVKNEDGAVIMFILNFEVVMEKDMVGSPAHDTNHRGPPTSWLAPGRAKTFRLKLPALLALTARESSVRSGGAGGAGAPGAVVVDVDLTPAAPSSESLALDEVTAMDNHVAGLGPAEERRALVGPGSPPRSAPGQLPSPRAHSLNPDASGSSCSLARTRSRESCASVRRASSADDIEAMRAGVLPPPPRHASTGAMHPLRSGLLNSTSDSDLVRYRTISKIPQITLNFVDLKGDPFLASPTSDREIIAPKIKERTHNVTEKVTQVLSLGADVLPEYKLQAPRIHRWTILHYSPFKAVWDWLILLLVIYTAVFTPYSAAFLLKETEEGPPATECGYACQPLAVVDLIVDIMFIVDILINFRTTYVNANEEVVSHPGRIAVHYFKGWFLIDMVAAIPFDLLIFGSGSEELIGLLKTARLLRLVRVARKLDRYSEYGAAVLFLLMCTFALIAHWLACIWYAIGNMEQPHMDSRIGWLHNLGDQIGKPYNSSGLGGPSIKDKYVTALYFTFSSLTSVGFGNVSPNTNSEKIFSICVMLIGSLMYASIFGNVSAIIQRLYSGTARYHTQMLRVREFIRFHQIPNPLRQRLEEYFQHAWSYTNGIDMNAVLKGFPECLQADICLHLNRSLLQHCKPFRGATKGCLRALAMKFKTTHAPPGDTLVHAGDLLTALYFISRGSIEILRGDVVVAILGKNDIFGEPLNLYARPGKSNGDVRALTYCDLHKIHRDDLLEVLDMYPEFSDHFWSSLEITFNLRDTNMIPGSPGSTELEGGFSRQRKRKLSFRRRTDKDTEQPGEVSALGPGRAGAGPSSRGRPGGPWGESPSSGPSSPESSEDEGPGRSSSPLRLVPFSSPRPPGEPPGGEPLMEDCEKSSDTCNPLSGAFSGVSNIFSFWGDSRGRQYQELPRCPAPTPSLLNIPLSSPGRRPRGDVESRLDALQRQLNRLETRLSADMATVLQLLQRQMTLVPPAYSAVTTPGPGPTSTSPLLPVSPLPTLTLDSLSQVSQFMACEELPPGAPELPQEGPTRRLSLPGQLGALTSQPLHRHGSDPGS
Method: Procedure: Compounds were prepared and diluted with DMSO to make 0.2 mM and 0.02 mM solution. Reference compound was diluted with DMSO to make 8-point 4-fold serial dilution, starting at 0.2 mM. One μl of compounds/high control/low control was transferred to the assay plate according to the plate map. Next, and by following the plate map, 100 μl of membrane stocks was dispensed into the plate followed by adding 100 μl of radio ligand. Plates were then sealed and were incubated at RT for 1 hours. In the meantime, the Unifilter-96 GF/C filter plates were soaked with 50 μL of 0.5% BSA per well for at least 0.5 hour at room temperature. When binding assays were completed, the reaction mixture was filtered through GF/C plates using Perkin Elmer Filtermate Harvester, and then each plate was washed for 4 times with cold wash buffer. Next, the filter plates were dried for 1 hr at 50 degrees and the bottom of the filter plate wells were sealed using Perkin Elmer Unifilter-96 backing seal tape. Next, 50 μl of Perkin Elmer Microscint 20 cocktail was added. The top of the filter plate was sealed with Perkin Elmer TopSeal-A sealing film. Using Perkin Elmer MicroBeta2 Reader count 3H trapped on filter. Finally, the data was analyzed with GraphPad Prism 5. The “Inhibition [% Control]” was calculated using the equation: % Inh=(1-Background subtracted Assay value/Background subtracted HC value)*100.

[3] = Solubility remark in Table 4; type: physicochemical; conditions: remark beside the GI50 value
[4] = molecular target: MLL1-WDR5 protein-protein interaction (Homo sapiens (Human), UniProt P61964); assay: WDR5 TR-FRET assay (MLL1-WDR5 PPI inhibition); type: binding; conditions: 5 nM WDR5 protein, 10 nM peptide, read-out: IC50 (nM), MLL1-WDR5 PPI inhibitory activity
Method: WDR5 TR-FRET Assay Procedure: Stock compounds were transferred to the assay plate by Echo Liquid Handler. […] Stock compounds were incubated with WDR5 protein for 30 min at room temperature. Plates were covered, protected from light and incubated for 60 min at room temperature, after adding the peptide and Tb-Ab. EnVision Multimode Plate Reader (PerkinElmer) was used for the TR-FRET assay with excitation wavelength at 340 nm and emission wavelength at 495 and 520 nm. The ratio of the 520/495 wavelengths were used to assess the degree of the FRET signal. IC50 was calculated by fitting the inhibition data using XLfit software to sigmoidal dose-response model.

Compound	GI50 [1] [µM]	IC50 [2] [nM]	inhibition at 1 h, 10000 nM [2] [%]	solubility (remark) [3]	IC50 [4] [nM]
CN1CCN(c2ccc(-n3cc(C(=O)NCCCN4CCOCC4)nn3)cc2NC(=O)c2cnc(Cl)cc2C(F)(F)F)CC1 [Compound 3]	0.298	> 10000	3.31		
CN1CCN(c2cc(F)c(-n3cc(C(=O)NCCCN4CCOCC4)nn3)cc2NC(=O)c2cnc(Cl)cc2C(F)(F)F)CC1 [Compound 7]	0.4	> 10000	11.8		
C[C@H]1CN(c2ccc(-n3cc(C(=O)NCCCN4CCOCC4)nn3)cc2NC(=O)c2cnc(Cl)cc2C(F)(F)F)CCN1C [Compound 9]	0.241	> 10000	6.39		
Cc1c(Cl)ncc(C(=O)Nc2cc(-n3cc(C(=O)NCCCN4CCOCC4)nn3)c(F)cc2N2CCN(C)[C@H](C)C2)c1Cl [Compound 59]	> 204			(poor solubility)	
CN(CCOc1ccc(NS(C)(=O)=O)cc1)CCc1ccc(NS(C)(=O)=O)cc1 [Dofetilide]			99.9		
C[C@@H]1CN(c2cc(F)c(-n3cc(C(=O)NC4CCN(C)CC4)nn3)cc2NC(=O)c2cnc(C(F)(F)F)cc2Cl)C[C@H](C)N1C [Example 58, 4-chloro-N-(4-fluoro-5-(4-((1-methylpiperidin-4-yl)carbamoyl)-1H-1,2,3-triazol-1-yl)-2-((3S,5R)-3,4,5-trimethylpiperazin-1-yl)phenyl)-6-(trifluoromethyl)nicotinamide]					> 10000
Cc1c(Cl)ncc(C(=O)Nc2cc(-n3cc(C(=O)NCCCN4CCOCC4)nn3)c(F)cc2N2C[C@@H](C)N(C)[C@@H](C)C2)c1Cl [Example 59, 4,6-dichloro-N-[4-fluoro-5-[4-(3-morpholinopropylcarbamoyl)triazol-1-yl]-2-[(3R,5S)-3,4,5-trimethylpiperazin-1-yl]phenyl]-5-methyl-pyridine-3-carboxamide]					> 10000
CN1CCN(c2ccc(-n3cc(C(=O)NCCCN4CCOCC4)nn3)cc2NC(=O)c2ncc(N)cn2)CC1 [HYBI-267, 5-amino-N-(2-(4-methylpiperazin-1-yl)-5-(4-((3-morpholinopropyl)carbamoyl)-1H-1,2,3-triazol-1-yl)phenyl)pyrimidine-2-carboxamide]					> 10000
C[C@H]1CN(c2cc(F)c(-n3cc(C(=O)N4CCN(C)CC4)nn3)cc2NC(=O)c2cnc(Cl)cc2C(F)(F)F)C[C@H](C)N1C [HYBI-284]					1270
